# Results published in paper PMC2697495 (The Journal of pharmacy and pharmacology, 2008).
# Marks after values point to notes of the source that are not given here.
# What was measured:
# UGT1A6 (insect) = target: T1, UGT1A6 (insect) (Homo sapiens, UniProt P19224); experiment: 5-HT glucuronidation by recombinant UGT1A6; assay type: biochemical; conditions: for 5-HT glucuronidation, % of the control activity (measured at 0 mM): UGT1A6 (insect), 4 mM 5-HT, n=3
# T1 sequence (P19224 27-532): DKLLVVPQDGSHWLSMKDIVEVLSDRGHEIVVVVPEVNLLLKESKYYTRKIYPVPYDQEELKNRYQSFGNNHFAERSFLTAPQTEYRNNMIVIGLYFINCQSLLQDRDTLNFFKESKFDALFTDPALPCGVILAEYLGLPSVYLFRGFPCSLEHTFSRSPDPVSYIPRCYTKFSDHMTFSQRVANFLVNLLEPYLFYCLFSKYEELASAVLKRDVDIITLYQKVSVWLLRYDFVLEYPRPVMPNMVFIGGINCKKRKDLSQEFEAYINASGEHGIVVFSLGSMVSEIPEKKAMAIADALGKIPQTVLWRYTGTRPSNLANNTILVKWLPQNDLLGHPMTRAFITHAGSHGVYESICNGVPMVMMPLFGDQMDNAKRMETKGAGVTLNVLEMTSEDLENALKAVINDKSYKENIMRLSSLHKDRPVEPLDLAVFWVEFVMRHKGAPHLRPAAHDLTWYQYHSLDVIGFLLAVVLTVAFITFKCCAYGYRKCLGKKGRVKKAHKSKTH
# UGT2B4 = UGT2B4 (Homo sapiens, UniProt P06133); experiment: Codeine glucuronidation by recombinant UGT2B4; assay type: biochemical; conditions: 1 mM codeine, n=3
# [1] = test system: pooled human liver microsomes (pHLMs); experiment: AZT glucuronidation by pHLMs; assay type: biochemical; conditions: pHLM, 500 μM AZT, n=3
# UGT1A9 = UGT1A9 (Homo sapiens, UniProt O60656); experiment: Salicylic acid; assay type: biochemical; conditions: 5 mM salicylic acid, n=3
# UGT1A1 = target: T2, UGT1A1 (Homo sapiens, UniProt P22309); experiment: Estradiol-3 glucuronidation by recombinant UGT1A1; assay type: biochemical; conditions: for Estradiol-3 glucuronidation, % of the control activity (measured at 0 mM): UGT1A1, 100 μM estradiol, n=3
# T2 sequence (P22309 26-533): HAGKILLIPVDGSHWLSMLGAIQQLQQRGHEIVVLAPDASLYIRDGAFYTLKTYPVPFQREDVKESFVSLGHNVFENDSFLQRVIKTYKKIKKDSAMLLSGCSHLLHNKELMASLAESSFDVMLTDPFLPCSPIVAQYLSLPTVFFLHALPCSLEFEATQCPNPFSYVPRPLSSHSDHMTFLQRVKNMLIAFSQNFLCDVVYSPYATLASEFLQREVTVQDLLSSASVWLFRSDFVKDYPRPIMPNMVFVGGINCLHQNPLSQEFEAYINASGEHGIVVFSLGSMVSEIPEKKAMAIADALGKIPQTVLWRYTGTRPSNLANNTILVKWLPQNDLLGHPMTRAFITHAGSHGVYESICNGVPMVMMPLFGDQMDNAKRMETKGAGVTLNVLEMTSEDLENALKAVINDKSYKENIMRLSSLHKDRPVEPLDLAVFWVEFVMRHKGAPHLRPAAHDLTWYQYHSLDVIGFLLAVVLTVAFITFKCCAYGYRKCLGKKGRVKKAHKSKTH
# [2] = test system: pooled human liver microsomes (pHLMs); experiment: Estradiol-17 glucuronidation by pHLMs; assay type: biochemical; conditions: pHLM, 100 μM estradiol, n=3
# UGT1A3 = target: T3, UGT1A3 (Homo sapiens, UniProt P35503); experiment: Estradiol-17 glucuronidation by recombinant UGT1A3; assay type: biochemical; conditions: 100 μM estradiol, n=3
# T3 sequence (P35503 29-534): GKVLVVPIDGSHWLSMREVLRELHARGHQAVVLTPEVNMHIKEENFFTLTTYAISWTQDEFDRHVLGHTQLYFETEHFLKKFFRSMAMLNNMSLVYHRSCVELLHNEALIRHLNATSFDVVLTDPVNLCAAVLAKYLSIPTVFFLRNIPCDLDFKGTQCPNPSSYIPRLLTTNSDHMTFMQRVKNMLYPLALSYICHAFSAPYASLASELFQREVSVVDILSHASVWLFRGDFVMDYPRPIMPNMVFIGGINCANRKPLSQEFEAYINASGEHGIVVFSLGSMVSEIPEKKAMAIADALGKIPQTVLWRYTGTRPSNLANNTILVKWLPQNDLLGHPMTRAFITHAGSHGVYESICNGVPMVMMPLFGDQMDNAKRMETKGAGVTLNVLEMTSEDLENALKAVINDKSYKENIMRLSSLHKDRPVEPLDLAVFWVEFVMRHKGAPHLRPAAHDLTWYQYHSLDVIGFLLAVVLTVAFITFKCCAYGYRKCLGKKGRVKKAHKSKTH
# UGT2B7 = target: T4, UGT2B7 (Homo sapiens, UniProt P16662); experiment: Estradiol-17 glucuronidation by recombinant UGT2B7; assay type: biochemical; conditions: for Estradiol-17 glucuronidation, % of the control activity (measured at 0 mM): UGT2B7, 100 μM estradiol, n=3
# T4 sequence (P16662 24-529): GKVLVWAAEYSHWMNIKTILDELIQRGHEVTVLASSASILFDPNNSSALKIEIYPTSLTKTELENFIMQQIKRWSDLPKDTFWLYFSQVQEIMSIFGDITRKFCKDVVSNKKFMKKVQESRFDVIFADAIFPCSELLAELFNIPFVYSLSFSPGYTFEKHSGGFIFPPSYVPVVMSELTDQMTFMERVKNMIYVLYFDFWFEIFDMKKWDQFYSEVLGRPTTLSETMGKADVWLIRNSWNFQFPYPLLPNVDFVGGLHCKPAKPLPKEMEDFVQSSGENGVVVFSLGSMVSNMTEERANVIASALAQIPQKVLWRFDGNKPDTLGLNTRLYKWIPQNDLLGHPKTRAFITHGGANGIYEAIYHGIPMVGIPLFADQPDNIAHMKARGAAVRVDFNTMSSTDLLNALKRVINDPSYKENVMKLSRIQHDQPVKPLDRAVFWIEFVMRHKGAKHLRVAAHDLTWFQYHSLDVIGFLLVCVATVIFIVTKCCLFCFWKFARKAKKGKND
# rats = conditions: in vivo in rats; ref Brunelle and Verbeeck (1997); cited from earlier work
# Chain of UGT2B4 (P06133 24-528): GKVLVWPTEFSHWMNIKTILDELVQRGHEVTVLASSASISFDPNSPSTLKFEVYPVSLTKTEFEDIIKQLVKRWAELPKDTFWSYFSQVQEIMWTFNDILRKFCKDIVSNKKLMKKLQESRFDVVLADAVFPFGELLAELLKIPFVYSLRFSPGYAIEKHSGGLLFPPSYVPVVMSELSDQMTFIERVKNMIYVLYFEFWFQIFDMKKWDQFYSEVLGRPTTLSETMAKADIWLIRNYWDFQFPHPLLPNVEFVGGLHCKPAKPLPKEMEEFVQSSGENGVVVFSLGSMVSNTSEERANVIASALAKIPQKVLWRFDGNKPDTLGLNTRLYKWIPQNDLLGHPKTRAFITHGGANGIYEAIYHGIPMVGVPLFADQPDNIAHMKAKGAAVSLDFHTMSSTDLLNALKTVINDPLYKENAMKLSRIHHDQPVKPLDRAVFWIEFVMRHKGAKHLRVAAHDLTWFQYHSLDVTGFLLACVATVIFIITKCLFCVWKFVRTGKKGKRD
# Chain of UGT1A9 (O60656 26-530): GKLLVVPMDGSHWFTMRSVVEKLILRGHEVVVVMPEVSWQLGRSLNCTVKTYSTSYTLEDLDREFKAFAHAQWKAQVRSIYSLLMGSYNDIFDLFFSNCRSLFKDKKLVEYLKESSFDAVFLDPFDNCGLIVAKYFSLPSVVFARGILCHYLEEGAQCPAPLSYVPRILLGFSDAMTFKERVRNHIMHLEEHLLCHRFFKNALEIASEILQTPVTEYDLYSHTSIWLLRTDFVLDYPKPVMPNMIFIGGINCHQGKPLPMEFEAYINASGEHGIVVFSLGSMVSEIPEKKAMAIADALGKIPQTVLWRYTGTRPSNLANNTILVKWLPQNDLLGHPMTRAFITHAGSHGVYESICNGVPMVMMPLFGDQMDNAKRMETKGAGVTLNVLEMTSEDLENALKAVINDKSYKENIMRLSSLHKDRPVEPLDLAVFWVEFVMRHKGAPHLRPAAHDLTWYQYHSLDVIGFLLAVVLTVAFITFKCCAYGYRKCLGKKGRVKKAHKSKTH
smiles,measurement,setting,value
"O=C(O)[C@@H](O)[C@H]1OC(=O)[C@H](O)[C@H]1O [saccharolactone, D-saccharic acid 1,4-lactone]","5-HT glucuronidation, % of the control activity (measured at 0 mM)",UGT1A6 (insect); 5 mM saccharolactone,88±7%
same,"5-HT glucuronidation, % of the control activity (measured at 0 mM)",UGT1A6 (insect); 20 mM saccharolactone,96±0%
same,effect on 5-hydroxytryptamine glucuronidation,"UGT1A6 (insect); UGT1A6 expressed in insect cells, saccharolactone up to 20 mM",no effect
same,"Codeine glucuronidation, % of the control activity (measured at 0 mM)",UGT2B4; 5 mM saccharolactone,91±4%
same,"Codeine glucuronidation, % of the control activity (measured at 0 mM)",UGT2B4; 20 mM saccharolactone,88±2%
same,"AZT glucuronidation, % of the control activity (measured at 0 mM)",[1]; 1 mM saccharolactone,96±2%
same,"AZT glucuronidation, % of the control activity (measured at 0 mM)",[1]; 2 mM saccharolactone,98±2%
same,"AZT glucuronidation, % of the control activity (measured at 0 mM)",[1]; 5 mM saccharolactone,94±2%
same,"AZT glucuronidation, % of the control activity (measured at 0 mM)",[1]; 10 mM saccharolactone,94±3%
same,"AZT glucuronidation, % of the control activity (measured at 0 mM)",[1]; 20 mM saccharolactone,94±1%
same,"Salicylic Acid glucuronidation, % of the control activity (measured at 0 mM)",UGT1A9; 5 mM saccharolactone,96±7%
same,"Salicylic Acid glucuronidation, % of the control activity (measured at 0 mM)",UGT1A9; 20 mM saccharolactone,99±7%
same,"Estradiol-3 glucuronidation, % of the control activity (measured at 0 mM)",UGT1A1; 5 mM saccharolactone,92±2%
same,"Estradiol-3 glucuronidation, % of the control activity (measured at 0 mM)",UGT1A1; 20 mM saccharolactone,87±5%
same,effect on estradiol glucuronidation,UGT1A1; recombinant UGT1A1,no effect
same,"Estradiol-17 glucuronidation, % of the control activity (measured at 0 mM)",[2]; 1 mM saccharolactone,71±4 ^a %
same,"Estradiol-17 glucuronidation, % of the control activity (measured at 0 mM)",[2]; 2 mM saccharolactone,81±8%
same,"Estradiol-17 glucuronidation, % of the control activity (measured at 0 mM)",[2]; 5 mM saccharolactone,78±7 ^a %
same,"Estradiol-17 glucuronidation, % of the control activity (measured at 0 mM)",[2]; 10 mM saccharolactone,68±2%
same,"Estradiol-17 glucuronidation, % of the control activity (measured at 0 mM)",[2]; 20 mM saccharolactone,66±6 ^a %
same,"Estradiol-17 glucuronidation, % of the control activity (measured at 0 mM)",UGT1A3; 5 mM saccharolactone,90±14%
same,"Estradiol-17 glucuronidation, % of the control activity (measured at 0 mM)",UGT1A3; 20 mM saccharolactone,98±10%
same,"Estradiol-17 glucuronidation, % of the control activity (measured at 0 mM)",UGT2B7; 5 mM saccharolactone,97±2%
same,"Estradiol-17 glucuronidation, % of the control activity (measured at 0 mM)",UGT2B7; 20 mM saccharolactone,87±7 ^a %
same,reduction in estradiol-17 glucuronidation activity,"UGT2B7; recombinant UGT2B7, 20 mM saccharolactone, p<0.05",13%
same,effect on partial clearance of diflunisal acyl glucuronide,rats,increase
same,effect on partial clearance of diflunisal phenol glucuronide,rats,little effect
